Here are results for nine compounds from BindingDB's records for doi:10.1021/jm00387a019 (1987).

For the experiment, the target named is Voltage-dependent L-type calcium channel subunit alpha-1C (Sus scrofa). The experiment is described as follows: Inhibition of [3H]nitrendipine binding to L-type calcium channel dihydropyridine site of porcine cardiac sarcolemma membrane vesicles.
For the compound `CCOC(=O)[C@H]1[C@H]2/C(=C(\O)OCC)C(C)=N[C@]1(C)Sc1cc([N+](=O)[O-])ccc12`, the Ki is 5000 nM. Regarding `CCOC(=O)[C@@H]1[C@H]2/C(=C(\O)OCC)C(C)=N[C@]1(C)Sc1ccc([N+](=O)[O-])cc12`, the inhibitory constant (Ki) came out at 30 nM. Take `CCOC(=O)[C@@H]1[C@H]2/C(=C(\O)OCC)C(C)=N[C@]1(C)Sc1c2cccc1[N+](=O)[O-]`: the Ki is 6000 nM.

With `CCOC(=O)[C@@H]1[C@H]2/C(=C(\O)OCC)C(C)=N[C@]1(C)Sc1cc([N+](=O)[O-])ccc12`, the Ki was 3000 nM. For `CCOC(=O)[C@H]1[C@H]2/C(=C(\O)OCC)C(C)=N[C@]1(C)Sc1ccccc12` the value was 5000 nM; for `CCOC(=O)C1=C(C)N=C(C)C(=C(O)OCC)C1c1cc([N+](=O)[O-])ccc1SC` (centres undefined), 80 nM. For `CCOC(=O)[C@H]1[C@H]2/C(=C(\O)OCC)C(C)=N[C@]1(C)Sc1c2cccc1[N+](=O)[O-]`, the Ki is 250 nM. For `CCOC(=O)[C@H]1[C@H]2/C(=C(\O)OCC)C(C)=N[C@]1(C)Sc1ccc([N+](=O)[O-])cc12` the value was 650 nM; for `CCOC(=O)[C@@H]1[C@H]2/C(=C(\O)OCC)C(C)=N[C@]1(C)Sc1ccccc12`, 500 nM.

For orientation: Ki means the dissociation constant of the complex between target and ligand, obtained from inhibition or displacement.
